From paper PMC13198257, “An aerosolized dual-action autotaxin inhibitor-PPARγ agonist for the treatment of pulmonary fibrosis” (Cell Reports Medicine, 2026)

Columns and labels:
[1] = PK of EL244: plasma and lung levels after i.p. or inhaled administration; format: in vivo, mice
LPA levels = LPA levels in BALF and plasma of BLM mice after inhaled EL244 (MS/MS); format: in vivo
Procedure: Plasma (50μL), BALF (300 μL) or homogenized lung tissue (10–50 mg) were mixed with ice-cold PBS spiked with the internal standard mixture (LPA-d9, Cayman) in a glass tube (total final volume 1mL). 2 mL of ice-cold chloroform and 1 mL of methanol was added in each sample, following by vortexing for 1 min and then centrifugation at 4°C for 5 min at 4000 g. The lower transparent organic phase (chloroform phase-contains the neutral lipids) was collected in a glass tube. The remaining aqueous phase (upper phase) was left on ice for 10 min and acidified (pH 3–4) with Formic Acid 10% in water. Then 1.5 mL chloroform was added followed by thorough mixing for 1 min and centrifugation at 4°C for 5 min at 2000 g. The lower organic phase was collected and neutralized to pH 6–7. The neutralized organic phase from the acid extraction were evaporated to dryness. After evaporation we redissolve in water/methanol (1:9) with 0.1% formic acid and run in the mass spec. All MS quantitation lipid standards were purchased from Cayman unless otherwise mentioned. All LPA species analyzed in this study were quantified using the multiple reaction monitoring (MRM) scanning method on an Waters-QQQ mass spectrometer. All data were acquired and analyzed using the Waters data analysis software. The LC separation was achieved using a Gemini 5U C18 column (Phenomenex, 5 μm, 50 × 4.6 mm) coupled to a Gemini guard column (Phenomenex, 4 × 3 mm). The LC solvents were as follows: buffer A, 85% CAN, 5% MeOH +0.1% formic acid +10% 10 mM ammonium formate buffer pH5; buffer B, 95:5 (v/v) ACN/MeOH +0.1% formic acid. A typical LC-run was 35 min, with the following solvent run sequence post injection: 0.35 mL/min 5% B for 5 min, linear gradient of B from 0 to 95% over 25 min, and re-equilibration with 0.5 mL/min of 5% B for 5 min. […] All the endogenous lipid species were quantified by measuring the area under the curve in comparison to the respective internal standard, and then normalized to the total protein content of the […] tissue. The following table presents the MRM used for LPA quantification.

type 2 diabetes model = test: HFD/STZ type 2 diabetes model, oGTT; format: in vivo, C57bl/6 male mice; conditions: i.p. 50 mg/kg daily, final 2 weeks
Procedure: One-year old male mice were given a High-Fat Diet (D12492, Research Diets) for 10 weeks. During the sixth week of the HFD period, mice received three streptozotocin injections (40mg/kg). Control mice that were consuming a control diet (D12450Ji, Research Diets) received injections with the solvent of STZ, 50 mM sodium citrate buffer, pH 4.5. During the last two weeks of the HFD treatment, a subgroup of prediabetic mice was daily administered EL244 through intraperitoneal injections (50 mg/kg). Disease induction and EL244 efficacy were assessed using an Oral Glucose tolerance test (oGTT), as widely used.[64]^,[65]^,[66] 6-hr-fasted mice were administered a 10% glucose solution at 1 g/kg orally. Blood glucose levels were measured with a saccharometer before glucose administration and at 15, 30, 60, 90, and 120 min thereafter. Insulin resistance was assessed by the Area under curve (AUC) of the oGTT.

O=C1NC(=O)C(Cc2ccc(OCCC3CCN(C(=O)OCc4cc(Cl)cc(Cl)c4)CC3)cc2)S1 (centres unmarked) [EL244, 3,5-dichlorobenzyl 4-(2-(4-((2,4-dioxothiazolidin-5-yl)methyl)phenoxy)ethyl)piperidine-1-carboxylate]
Plasma concentration ([1]; i.p. 30 mg/Kg, 3 h): ~35 μΜ | Clearance rate from the lung and absorption in the systemic circulation ([1]; inhaled 15 mg/kg): low | Retention in the lung ([1]; inhaled 15 mg/kg): highly retained in the lung | concentration at 1 h ([1]; mouse, plasma, ip, i.p. 30 mg/Kg, 1 hour): 40 µM | concentration at 9 h ([1]; mouse, plasma, ip, i.p. 30 mg/Kg, 9 h post-dose): 15 µM | LPA species in BALF (LPA levels): All LPA species, except for 18:0, were found to be reduced in the BALF | Plasma LPA levels (LPA levels): no modulation of plasma LPA levels was detected | Total LPA content in BALFs (LPA levels): found reduced | Glucose levels (type 2 diabetes model): lower glucose levels | Insulin resistance (AUC of oGTT) (type 2 diabetes model): decreased insulin resistance | PPARγ target gene expression in adipose and liver tissue (type 2 diabetes model): stimulated the expression of several PPARγ target genes
